Reference: patent publication US11285156B2, “Substituted piperazines as KRAS G12C inhibitors” (Amgen Inc., priority 2018, dated 2022)

Biological target: GDP-bound KRAS protein (aa 1-169), containing both G12C and C118A amino acid substitutions (Homo sapiens (Human), UniProt P01116, C118A/G12C)
Assay: Coupled nucleotide exchange assay (SOS-mediated nucleotide exchange, AlphaScreen)
Type: biochemical
Conditions: read-out: Coupled exchange IC50 (5 min; μM); 5 min compound pre-incubation

Sequence of GDP-bound KRAS protein (aa 1-169), containing both G12C and C118A amino acid substitutions (P01116 other isoform, or with tags, fused parts or gaps G12C/C118A): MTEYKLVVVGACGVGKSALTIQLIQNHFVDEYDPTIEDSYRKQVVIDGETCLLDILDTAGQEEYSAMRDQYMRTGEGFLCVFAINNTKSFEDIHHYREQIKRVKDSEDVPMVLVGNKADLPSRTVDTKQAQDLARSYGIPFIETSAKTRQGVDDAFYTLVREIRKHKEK

Structure (SMILES) | IC50 [µM]
C=CC(=O)N1C[C@H](C)N(c2nc(=O)n(-c3c(C)ccnc3C(C)C)c3nc(-c4cc(OC)ccc4Cl)c(F)cc23)C[C@H]1C (atropisomer, axis not shown; (M)) [Example 94-6, (M)-7-(2-chloro-5-methoxy-phenyl)-4-[(2S,5R)-2,5-dimethyl-4-prop-2-enoyl-piperazin-1-yl]-6-fluoro-1-(2-isopropyl-4-methyl-3-pyridyl)pyrido [2,3-d]pyrimidin-2-one] | 0.468
C=CC(=O)N1C[C@H](C)N(c2nc(=O)n(-c3c(C)ccnc3C(C)C)c3nc(-c4c(C)cccc4C)c(F)cc23)C[C@H]1C (atropisomer, axis not shown; (M)) [Example 94-9, (M)-7-(2,6-Dimethylphenyl)-4-[(2S,5R)-2,5-dimethyl-4-prop-2-enoyl-piperazin-1-yl]-6-fluoro-1-(2-isopropyl-4-methyl-3-pyridyl)pyrido [2,3-d]pyrimidin-2-one] | 0.469
C=CC(=O)N1C[C@H](C)N(c2nc(=O)n(-c3c(C)ccnc3C(C)C)c3nc(-c4c(F)cccc4F)c(F)cc23)C[C@H]1C (atropisomer, axis not shown; (M)) [Example 94-11, (M)-7-(2,6-Difluorophenyl)-4-[(2S,5R)-2,5-dimethyl-4-prop-2-enoyl-piperazin-1-yl]-6-fluoro-1-(2-isopropyl-4-methyl-3-pyridyl)pyrido [2,3-d]pyrimidin-2-one] | 0.844
C=CC(=O)N1C[C@H](C)N(c2nc(=O)n(-c3c(C)ccnc3C(C)C)c3nc(-c4ccccc4C(F)F)c(F)cc23)C[C@H]1C (atropisomer, axis not shown; (M)) [Example 94-13, (M)-7-[2-(Difluoromethyl)phenyl]-4-[(2S,5R)-2,5-dimethyl-4-prop-2-enoyl-piperazin-1-yl]-6-fluoro-1-(2-isopropyl-4-methyl-3-pyridyl)pyrido [2,3-d]pyrimidin-2-one] | 0.387
C=CC(=O)N1C[C@H](C)N(c2nc(=O)n(-c3c(C)ccnc3C(C)C)c3nc(-c4ccccc4C(=O)O)c(F)cc23)C[C@H]1C (atropisomer, axis not shown; (M)) [Example 94-15, (M)-2-[4-[(2S,5R)-2,5-Dimethyl-4-prop-2-enoyl-piperazin-1-yl]-6-fluoro-1-(2-isopropyl-4-methyl-3-pyridyl)-2-oxo-pyrido[2,3-a]pyrimidin-7-yl]benzoic acid] | 0.963
C=CC(=O)N1C[C@H](C)N(c2nc(=O)n(-c3c(C)ccnc3C(C)C)c3nc(-c4ccccc4C(N)=O)c(F)cc23)C[C@H]1C (atropisomer, axis not shown; (M)) [Example 94-17, (M)-2-[4-[(2S,5R)-2,5-Dimethyl-4-prop-2-enoyl-piperazin-1-yl]-6-fluoro-1-(2-isopropyl-4-methyl-3-pyridyl)-2-oxo-pyrido[2,3-d]pyrimidin-7-yl]benzamide] | 0.39
C=CC(=O)N1C[C@H](C)N(c2nc(=O)n(-c3c(C)ccnc3C(C)C)c3nc(-c4ccccc4C(=O)NC)c(F)cc23)C[C@H]1C (atropisomer, axis not shown; (M)) [Example 94-18] | 0.749
C=CC(=O)N1C[C@H](C)N(c2nc(=O)n(-c3c(C)ccnc3C(C)C)c3nc(-c4ccccc4N)c(F)cc23)C[C@H]1C (atropisomer, axis not shown; (M)) [Example 94-20, (M)-7-(2-Aminophenyl)-4-[(2S,5R)-2,5-dimethyl-4-prop-2-enoyl-piperazin-1-yl]-6-fluoro-1-(2-isopropyl-4-methyl-3-pyridyl)pyrido [2,3-d]pyrimidin-2-one] | 0.452
C=CC(=O)N1C[C@H](C)N(c2nc(=O)n(-c3c(C)ccnc3C(C)C)c3nc(-c4cc(OC)cc5ccccc45)c(F)cc23)C[C@H]1C (atropisomer, axis not shown; (M)) [Example 94-21, (M)-4-[(2S,5R)-2,5-Dimethyl-4-prop-2-enoyl-piperazin-1-yl]-6-fluoro-1-(2-isopropyl-4-methyl-3-pyridyl)-7-(3-methoxy-1-naphthyl)pyrido[2,3-d]pyrimidin-2-one] | 32.4
C=CC(=O)N1C[C@H](C)N(c2nc(=O)n(-c3c(C)ccnc3C(C)C)c3nc(CC(C)(C)C)c(Cl)cc23)C[C@H]1C (atropisomer, axis not shown; (M)) [Example 95-2, (M)-6-chloro-4-[(2S,5R)-2,5-dimethyl-4-prop-2-enoyl-piperazin-1-yl]-7-(2,2-dimethylpropyl)-1-(2-isopropyl-4-methyl-3-pyridyl)pyrido [2,3-d]pyrimidin-2-one] | 1.04
C=CC(=O)N1C[C@H](C)N(c2nc(=O)n(-c3c(C)ccnc3C(C)C)c3nc(C4CCCC4)c(Cl)cc23)C[C@H]1C (atropisomer, axis not shown; (M)) [Example 95-3, (M)-6-chloro-7-cyclopentyl-4-[(2S,5R)-2,5-dimethyl-4-prop-2-enoyl-piperazin-1-yl]-1-(2-isopropyl-4-methyl-3-pyridyl)pyrido [2,3-d]pyrimidin-2-one] | 0.631
C=CC(=O)N1C[C@H](C)N(c2nc(=O)n(-c3c(C)ccnc3C(C)C)c3nc(C4CC4)c(Cl)cc23)C[C@H]1C (atropisomer, axis not shown; (M)) [Example 95-4, (M)-6-chloro-7-cyclopropyl-4-[(2S,5R)-2,5-dimethyl-4-prop-2-enoyl-piperazin-1-yl]-1-(2-isopropyl-4-methyl-3-pyridyl)pyrido [2,3-d]pyrimidin-2-one] | 0.571
C=CC(=O)N1C[C@H](C)N(c2nc(=O)n(-c3c(C)ccnc3C(C)C)c3nc(CCC)c(Cl)cc23)C[C@H]1C (atropisomer, axis not shown; (M)) [Example 95-6, (M)-6-chloro-4-[(2S,5R)-2,5-dimethyl-4-prop-2-enoyl-piperazin-1-yl]-1-(2-isopropyl-4-methyl-3-pyridyl)-7-propyl-pyrido[2,3-d]pyrimidin-2-one] | 0.823
C=CC(=O)N1C[C@H](C)N(c2nc(=O)n(-c3c(C)ccnc3C(C)C)c3nc(C#CC(C)(C)C)c(Cl)cc23)C[C@H]1C (atropisomer, axis not shown; (M)) [Example 95-7, (M)-6-chloro~7-(3,3-dimethylbut-1-ynyl)-4-[(2S,5R)-2,5-dimethyl-4-prop-2-enoyl-piperazin-1-yl]-1-(2-isopropyl-4-methyl-3-pyridyl)pyrido [2,3-d]pyrimidin-2-one] | 34
C=CC(=O)N1C[C@H](C)N(c2nc(=O)n(-c3c(C)ccnc3C(C)C)c3nc(-c4ncccc4C)c(Cl)cc23)C[C@H]1C (atropisomer, axis not shown; (M)) [Example 96-1, (M)-6-Chloro-4-[(2S,5R)-2,5-dimethyl-4-prop-2-enoyl-piperazin-1-yl]-1-(2-isopropyl-4-methyl-3-pyridyl)-7-(3-methyl-2-pyridyl)pyrido[2,3-d]pyrimidin-2-one] | 0.345
C=CC(=O)N1C[C@H](C)N(c2nc(=O)n(-c3c(C)ccnc3C(C)C)c3nc(-c4ccccc4N(C)C(C)=O)c(Cl)cc23)C[C@H]1C (atropisomer, axis not shown; (M)) [Example 129-3, (M)-N-[2-[6-Chloro-4-[(2S,5R)-2,5-dimethyl-4-prop-2-enoyl-piperazin-1-yl]-1-(2-isopropyl-4-methyl-3-pyridyl)-2-oxo-pyrido[2,3-d]pyrimidin-7-yl]phenyl]-N-methyl-acetamide] | 0.352
